Experimental data published in patent publication US8349835B2, “Aromatic ring fused triazine derivatives and uses thereof” (Shenyang Pharmaceutical University, priority 2008, dated 2013).
pIC50: −log10 of the molar value.

Key:
[1] = test system: Murine Lewis lung cancer cells (LL/2); experiment: MTT growth inhibition of LL/2; format: cell-based; conditions: Mus musculus, Lewis lung carcinoma, 96 h; LL/2, MTT, 4 days; read-out: IG50 LL/2
Description: (§1) In Vitro Anti-Tumor Activity Test
(§2) Put cell suspension into centrifugal tubes with a pipette under sterile conditions, then the cell suspension was centrifuged for 3 minutes at 1300 rpm. Discarded the supernatant lightly and added fresh culture medium. Mixed the cells by pipetting, then transferred the cells into culture flasks, and put them into the CO2 incubator. Changed the culture medium once after 24 hours.
(§3) Human prostate cancer cells (DU145, PC-3) were cultured in a medium containing RPMI1640 basic medium supplemented with 10% heat-inactivated FBS, 100 IU/mL penicillin, 100 μg/mL streptomycin and 1 mmol/L L-glutamine. Human breast carcinoma cells (T47D, MDA-MB231) were cultured in a medium containing RPM11640 basic medium supplemented with 10% heat-inactivated FBS, 5 μg/mL insulin, 100 IU/mL penicillin, 100 μg/mL streptomycin and 1 mmol/L L-glutamine. Human breast carcinoma cells (MCF-7) were cultured in a medium containing DMEM basic medium supplemented with 10% heat-inactivated FBS, 5 μg/mL insulin, 100 IU/mL penicillin, 100 μg/mL streptomycin and […]. Murine Lewis lung cancer cells (LL/2), murine melanoma cells (B16FD) and Microvascular Endothelial Cells (MVEC) were cultured in a medium containing DMEM basic medium supplemented with 10% heat-inactivated FBS, 4.5 g/L glucose, 1.5 g/L NaHCO3, 100 IU/mL penicillin, 100 μg/mL streptomycin and 4 mmol/L L-glutamine. All these cell lines were incubated at 37° C. biochemical incubator with 5% CO2 saturated humidity.
(§4) After resuscitation, the cells were passed for 2-3 generations till they became stable, then they were used for the experiments. Each passage was based on the standard that all cells were spread over the bottoms of culture flasks.
(§5) Cells were digested off from the bottoms of culture flasks with trypsin (0.25%). The cell dissociation buffer was transferred into centrifuge tubes, added medium to stop the digestion, and centrifuged for 3 minutes at 1300 rpm. Discarded the supernatant lightly and added fresh culture medium (5 mL). Mixed the cells by pipetting, then added 10 μL of the cell suspension into the cell counting plate, and adjusted the cell concentration to 2×10^4 cells/mL. Added 100 μL of the cell suspension to all wells on the 96 well plates, except A1 well as the blank control. Put the plates into the biochemical incubator for 24 hours and to make sure the cells grew along the walls. […]
(§6) Added 50 μL MTT liquids (2 mg/mL) into each well, put the culture plates into the biochemical incubator for 4 h, discarded MTT liquids (TCC), added 200 μL DMSO, then oscillated for 10 minutes on the magnetic oscillator to make sure that the survived cells and the reaction product of MTT were fully dissolved. Detected and recorded the absorbance (OD) values of each well at the wavelength of 570 nm using the microplate reader. […] The cell growth inhibition rates under each drug concentration were calculated by the following formula. […] Inhibition rate of growth(%)=(1−The absorbance(OD)of cells with tested drugs/The absorbance(OD)of the blank control group)×100%
(§7) The absorbance (OD) of cells with tested drugs: OD value is measured with the test drugs.
(§8) The absorbance (OD) of the blank control group: OD value is measured without the test drugs. […]

[2] = test system: Human prostate cancer cells (DU145); experiment: MTT growth inhibition of DU145; format: cell-based; conditions: DU-145, 96 h, 4 days, read-out: IG50 DU145
Description: as §1, §2, §3, §4, §5, §6, §7, §8

[3] = test system: Human breast carcinoma cells (T47D); experiment: MTT growth inhibition of T47D; format: cell-based; conditions: 96 h, 4 days, read-out: IG50 T47D
Description: as §1, §2, §3, §4, §5, §6, §7, §8

[4] = molecular target: VEGFR-2 (Homo sapiens, UniProt P35968); experiment: VEGFR-2 inhibition rate test (kinase assay kit, colorimetric ELISA); conditions: concentration not given
Sequence of VEGFR-2 (P35968 20-1356): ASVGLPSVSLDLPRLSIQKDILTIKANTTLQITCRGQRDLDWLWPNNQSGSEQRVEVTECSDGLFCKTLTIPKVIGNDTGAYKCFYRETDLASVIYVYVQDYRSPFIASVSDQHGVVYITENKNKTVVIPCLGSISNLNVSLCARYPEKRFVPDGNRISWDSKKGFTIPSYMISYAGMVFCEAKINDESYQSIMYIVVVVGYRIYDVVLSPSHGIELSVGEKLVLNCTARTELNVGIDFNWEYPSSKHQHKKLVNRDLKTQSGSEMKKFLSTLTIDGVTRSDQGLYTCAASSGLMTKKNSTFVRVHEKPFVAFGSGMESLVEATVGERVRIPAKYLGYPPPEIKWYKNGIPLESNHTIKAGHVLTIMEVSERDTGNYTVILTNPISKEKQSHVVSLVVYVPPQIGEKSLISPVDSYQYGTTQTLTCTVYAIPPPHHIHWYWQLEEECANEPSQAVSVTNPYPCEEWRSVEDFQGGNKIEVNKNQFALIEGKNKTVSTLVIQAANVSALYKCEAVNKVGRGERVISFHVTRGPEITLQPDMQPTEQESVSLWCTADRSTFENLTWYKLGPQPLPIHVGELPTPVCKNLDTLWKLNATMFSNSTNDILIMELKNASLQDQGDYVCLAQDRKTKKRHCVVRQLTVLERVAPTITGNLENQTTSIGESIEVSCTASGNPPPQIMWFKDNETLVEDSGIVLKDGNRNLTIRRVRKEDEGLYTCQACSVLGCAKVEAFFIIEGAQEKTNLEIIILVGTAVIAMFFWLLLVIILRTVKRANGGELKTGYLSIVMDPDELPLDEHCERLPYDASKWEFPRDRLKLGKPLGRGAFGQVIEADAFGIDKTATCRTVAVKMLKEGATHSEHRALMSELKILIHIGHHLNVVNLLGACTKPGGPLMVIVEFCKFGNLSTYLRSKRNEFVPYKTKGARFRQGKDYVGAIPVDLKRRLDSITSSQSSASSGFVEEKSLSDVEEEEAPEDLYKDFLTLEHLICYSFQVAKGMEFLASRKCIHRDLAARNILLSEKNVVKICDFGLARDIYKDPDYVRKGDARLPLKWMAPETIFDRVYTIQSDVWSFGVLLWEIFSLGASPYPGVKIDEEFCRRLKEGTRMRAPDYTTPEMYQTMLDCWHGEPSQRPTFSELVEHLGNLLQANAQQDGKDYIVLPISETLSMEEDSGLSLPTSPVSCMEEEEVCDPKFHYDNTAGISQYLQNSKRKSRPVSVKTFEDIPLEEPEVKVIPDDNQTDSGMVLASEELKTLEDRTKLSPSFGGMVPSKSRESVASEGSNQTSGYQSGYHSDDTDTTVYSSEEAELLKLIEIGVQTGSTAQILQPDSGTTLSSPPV

[5] = test system: Human Umbilical Vein Endothelial Cells (HUVEC); experiment: MTT growth inhibition of HUVEC; format: cell-based; conditions: 96 h, 4 days, read-out: IG50 HUVEC
Description: as §1, §2, §4
Cells were digested off from the bottoms of culture flasks with trypsin (0.25%). The cell dissociation buffer was transferred into centrifuge tubes, added medium to stop the digestion, and centrifuged for 3 minutes at 1300 rpm. Discarded the supernatant lightly and added fresh culture medium (5 mL). Mixed the cells by pipetting, then added 10 μL of the cell suspension into the cell counting plate, and adjusted the cell concentration to 2×10^4 cells/mL. Added 100 μL of the cell suspension to all wells on the 96 well plates, except A1 well as the blank control. Put the plates into the biochemical incubator for 24 hours and to make sure the cells grew along the walls.
The drugs were dissolved in 80 mmol/L DMSO first, and then diluted the drugs with ethanol to 8 mmol/L. The solution was further diluted with the culture medium to different concentrations as 160 μmol/L, 120 μmol/L, 80 μmol/L, 40 μmol/L, 20 μmol/L and 10 μmol/L. Added 100 μL of the drug solution to each well on the 96 well plates. Therefore, the final concentrations of the drugs that were added to the cells were 80 μmol/L, 40 μmol/L, 20 μmol/L, 10 μmol/L and 5 μmol/L, and each concentration were repeated in three parallel wells. Put the culture plates into the biochemical incubator to culture continuously for 4 days.
Added 50 μL MTT liquids (2 mg/mL) into each well, put the culture plates into the biochemical incubator for 4 h, discarded MTT liquids (TCC), added 200 μL DMSO, then oscillated for 10 minutes on the magnetic oscillator to make sure that the survived cells and the reaction product of MTT were fully dissolved. Detected and recorded the absorbance (OD) values of each well at the wavelength of 570 nm using the microplate reader. The OD values of cells without tested drugs were used as control. The cell growth inhibition rates under each drug concentration were calculated by the following formula. […] Inhibition rate of growth(%)=(1−The absorbance(OD)of cells with tested drugs/The absorbance(OD)of the blank control group)×100%
as §7
The absorbance (OD) of the blank control group: OD value is measured without the test drugs.
8) The Growth Inhibition Effect of Compounds on Human Breast Carcinoma Cells (T47D, MDA-MB231, MCF-7), Human Prostate Cancer (DUI45, PC-3), Murine Lewis Lung Cancer Cells (LL/2), Murine Melanoma Cells(B16F0) and Human Umbilical Vein Endothelial Cells (HUVEC) (Table 2).

[6] = test system: Microvascular Endothelial Cells (MVEC); experiment: MTT growth inhibition of MVEC; format: cell-based; conditions: Endothelial cell, 96 h, 4 days culture with drug, read-out: IG50 on inhibiting growth of MVEC
How it was run: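 MVEC were seeded at 2×10^4 cells/mL in DMEM with 10% FBS and allowed to attach for 24 h, then treated with compound at final concentrations of 5–80 μmol/L (triplicates) for 4 days at 37 °C. MTT (4 h) absorbance at 570 nm gave % growth inhibition relative to untreated cells.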

[7] = test system: Human prostate cancer cells (PC-3); experiment: MTT growth inhibition of PC-3; format: cell-based; conditions: 96 h, PC-3, MTT, 4 days, read-out: IG50 PC-3
Description: as §1, §2, §3, §4, §5, §6, §7, §8

[8] = test system: murine melanoma cells (B16F0); experiment: MTT growth inhibition of B16F0; format: cell-based; conditions: Mus musculus, 96 h, 4 days, read-out: IG50 B16F0
Description: as §1, §2, §3, §4, §5, §6, §7, §8

[9] = in vivo; conditions: both sexes, mouse, intraperitoneal, Kunming mice, peritoneal injection, single administration, observed for one week
Description: 9) Acute Toxicity Testing
Animals: healthy mice of Kunming species, female and male each account for 50%, and the weights range from 18 to 22 g. All the mice were obtained from the laboratory animal center of Shenyang Pharmaceutical University. Certificate number: Liao Shi He Zi No. 033
Medicine preparation: drugs were added in 0.2% Polysorbate 80 (Tween-80) to make suspension. The dosage of tested compounds was indicated with mg/kg.
Test period and Observed index: observed for one week after the administration. The toxic reaction information of the mice was recorded everyday during the observation period. The death of mice was regarded as the principal index. Half lethal doses (LD50, mg/kg) of the compounds one week after the drug administration were calculated according to the method of weighted regression.

[10] = test system: Rat aortic ring; experiment: Rat Aortic Ring Assay; format: cell-based; conditions: observed on the sixth day
How it was run: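 1 mm abdominal aortic rings from 6-week-old SD animals embedded in Matrigel, cultured in DMEM/10% FBS with compound at various concentrations (≥3 wells), medium and compound renewed day 3. Microvessel area imaged on day 6 (×100, 3 random rings); inhibition rate scored: ⋆<30-60%, ⋆⋆60-90%, ⋆⋆⋆>90%.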

[11] = test system: Human breast carcinoma cells (MCF-7); experiment: MTT growth inhibition of MCF-7; format: cell-based; conditions: MCF7, 96 h, MCF-7, MTT, 4 days, read-out: IG50 MCF-7
Description: as §1, §2, §3, §4
(§9) Cells were digested off from the bottoms of culture flasks with trypsin (0.25%). The cell dissociation buffer was transferred into centrifuge tubes, added medium to stop the digestion, and centrifuged for 3 minutes at 1300 rpm. […]
as §6, §7, §8

[12] = test system: Human breast carcinoma cells (MDA-MB231); experiment: MTT growth inhibition of MDA-MB231; format: cell-based; conditions: MDA-MB-231, 96 h, 4 days, read-out: IG50 MDA-MB231
Description: as §1, §2, §3, §4, §9, §6, §7, §8

[13] = test system: chorioallantoic membrane vessels; experiment: Activity test by chick chorioallantoic membrane method; format: in vivo; conditions: 5 uL medicine on cellulose membrane, chick embryo, 2 days
Description: After the shell membrane became wet, tore it open with ophthalmological tweezers so to expose the chorioallantoic membrane. • 6) Added 5 uL of selected medicine to a 0.5×0.5 cm cellulose membrane sterilized by high pressure, then set the membrane on the part of the chorioallantoic membrane with fewer vessels • 7) Closed the window, and put the embryos back into the hatch box to hatch for 2 days. • 8) Opened the transparent tape, and then opened the mixed cellulose membrane lightly with a tweezers. Measured the avascular area and took photographs.

| Structure (SMILES) | pIC50 [1] | pIC50 [2] | pIC50 [3] | Kinase inhibition rate (VEGFR-2) [4] | pIC50 [5] | pIC50 [6] | pIC50 [7] | pIC50 [8] | LD50 at 1 week [9] | Rat Aortic Ring Assay (10 ug/ml), result in words [10] | pIC50 [11] | pIC50 [12] | The inhibitory effect on the growth of chorioallantoic membrane vessels [13] |
| --- | --- | --- | --- | --- | --- | --- | --- | --- | --- | --- | --- | --- | --- |
| COc1cc2c(Nc3ccc(F)c(Cl)c3)nnnc2cc1OCCCCl [Example 72, 6-methoxy-7-chloropropoxy-4-(3-chloro-4-fluoroanilino)-benzo[d][1,2,3]triazine] | 5.42 | 5.30 | 5.30 | −14.70 | 5.43 | 5.10 | 5.16 | 5.28 |  |  |  |  |  |
| FC(F)(F)c1cccc(Nc2nnnc3ccc(Cl)nc23)c1 [Example 84, 6-chloro-4-(3-trifluoromethylanilino)pyrido[3,2-d][1,2,3]triazine] | 5.32 | 5.23 | 5.23 |  | 5.52 | 5.28 | 5.16 | 5.37 | 424 mg/kg | Almost complete inhibition (10 μg/mL), vascular ring was dead | 5.40 | 5.29 |  |
| Clc1ccc(Nc2nnc(Cc3ccncc3)c3ccccc23)cc1 [PTK787, Vatalanib succinate, reference compound] | 4.46 | 4.38 | 4.44 |  | < 4.40 | 4.42 | 4.20 | 4.67 |  |  | 4.91 | 4.62 | There is no vascular growth. |
| FC(F)(F)Oc1cccc(Nc2nnnc3ccc(Cl)nc23)c1 [Example 86, 6-chloro-4-(3-trifluoromethoxyanilino)pyrido[3,2-d][1,2,3]triazine] | 5.38 | 5.38 | 5.19 | 29.93 | 5.66 | 5.37 | 5.22 | 5.33 | 292 mg/kg | Almost complete inhibition (10 μg/mL), vascular ring was dead | 5.34 | 5.33 |  |
| CCCCOc1cc2nnnc(Nc3ccc(C)cc3)c2cc1OC [Example 27, 6-methoxy-7-n-butoxy-4-(4-methylanilino)-benzo[d][1,2,3]triazine] | 4.80 | 4.82 | 4.73 |  | 5.30 | 5.04 | 4.80 | 4.65 | 733 mg/kg |  | 5.21 | 4.71 |  |
